Data from patent US20140155376A1, “PYRROLOPYRAZINE KINASE INHIBITORS” (Hoffmann-La Roche Inc., priority 2010, published 2014).

Biological target: T1, JAK3 (recombinant human kinase domain; h-jak3(810-1124)) (Homo sapiens, UniProt P52333)
T1 construct: h-jak3(810- 1124)-sf9-c; made in house; host or cells: Sf9 insect cells
Assay: Determination of IC50 of Janus Kinase (JAK) inhibition: JAK3, radioactive end-point assay with 33P-ATP
Type: biochemical
Details: JAK3 kinase domain; ATP 1.5 uM, peptide 50 uM, 20 minutes, room temperature, 10% DMSO; read-out: Ic50 h-jak3(810-1124)-sf9-c:no additive

T1 sequence (P52333 810-1124): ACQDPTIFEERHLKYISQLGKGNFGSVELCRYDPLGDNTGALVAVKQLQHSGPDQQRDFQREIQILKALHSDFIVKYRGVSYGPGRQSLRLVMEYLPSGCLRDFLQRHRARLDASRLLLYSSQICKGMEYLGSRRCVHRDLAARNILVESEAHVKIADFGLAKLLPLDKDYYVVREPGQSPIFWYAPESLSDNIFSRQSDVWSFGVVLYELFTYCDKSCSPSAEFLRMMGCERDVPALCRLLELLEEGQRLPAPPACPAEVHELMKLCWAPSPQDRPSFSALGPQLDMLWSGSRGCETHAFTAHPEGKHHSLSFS

IC50 [nM] | SMILES
810 | CCNC(=O)c1c[nH]c2ncc(Oc3cccc(OC)c3)nc12 [Example I-264, 2-(3-Methoxy-phenoxy)-5H-pyrrolo[2,3-b]pyrazine-7-carboxylic acid ethylamide]
35.7 | CC(NC(=O)c1c[nH]c2ncc(Oc3ccc(F)cc3)nc12)C1CC1 (stereo not shown) [Example I-113, 2-(4-Fluoro-phenoxy)-5H-pyrrolo[2,3-b]pyrazine-7-carboxylic acid (1-cyclopropyl-ethyl)-amide]
0.32 | CCNC(=O)c1ccc(-c2cnc3[nH]cc(C(=O)N[C@@H](C)C(C)(C)C)c3n2)s1 [Example I-155, 2-(5-Ethylcarbamoyl-thiophen-2-yl)-5H-pyrrolo[2,3-b]pyrazine-7-carboxylic acid ((S)-1,2,2-trimethyl-propyl)-amide]
14.7 | N#CCC(NC(=O)c1c[nH]c2ncc(C3CC3)nc12)C1CC1 (stereo not shown) [Example I-106, 2-Cyclopropyl-5H-pyrrolo[2,3-b]pyrazine-7-carboxylic acid (2-cyano-1-cyclopropyl-ethyl)-amide]
152 | C[C@H](NC(=O)c1c[nH]c2ncc(C3CCCCC3)nc12)C(C)(C)O [Example I-11, 2-Cyclohexyl-5H-pyrrolo[2,3-b]pyrazine-7-carboxylic acid ((S)-2-hydroxy-1,2-dimethyl-propyl)-amide]
2.99 | C[C@H](NC(=O)c1c[nH]c2ncc(-c3cn(-c4cc(C(F)(F)F)ccc4F)cn3)nc12)C(C)(C)C [Example I-149, 2-[1-(2-Fluoro-5-trifluoromethyl-phenyl)-1H-imidazol-4-yl]-5H-pyrrolo[2,3-b]pyrazine-7-carboxylic acid ((S)-1,2,2-trimethyl-propyl)-amide]
63.8 | CC(C)[C@H](C)NC(=O)c1c[nH]c2ncc(Oc3ccccc3)nc12 [Example I-122, 2-Phenoxy-5H-pyrrolo[2,3-b]pyrazine-7-carboxylic acid ((S)-1,2-dimethyl-propyl)-amide]
0.11 | C[C@H](NC(=O)c1c[nH]c2ncc(-c3ccc(C(=O)NCc4ccccn4)s3)nc12)C(C)(C)C [Example I-166, 2-{5-[(Pyridin-2-ylmethyl)-carbamoyl]-thiophen-2-yl}-5H-pyrrolo[2,3-b]pyrazine-7-carboxylic acid ((S)-1,2,2-trimethyl-propyl)-amide]
0.23 | Cc1cc(-c2cnc3[nH]cc(C(=O)N[C@@H](C)C(C)(C)C)c3n2)sc1C(=O)N1CCS(=O)(=O)CC1 [Example I-220, 2-[5-(1,1-Dioxo-1λ^6-thiomorpholine-4-carbonyl)-4-methyl-thiophen-2-yl]-5H-pyrrolo[2,3-b]pyrazine-7-carboxylic acid ((S)-1,2,2-trimethyl-propyl)-amide]
121 | C[C@@H]1C[C@H]1c1cnc2[nH]cc(C(=O)NCC(C)(C)CO)c2n1 [Example I-43, 2-((1R,2R)-2-Methyl-cyclopropyl)-5H-pyrrolo[2,3-b]pyrazine-7-carboxylic acid (3-hydroxy-2,2-dimethyl-propyl)-amide]
0.53 | CC(Cc1ccc(F)cc1)NC(=O)c1ccc(-c2cnc3[nH]cc(C(=O)N[C@@H](C)C(C)(C)C)c3n2)s1 (stereo partly drawn) [Example I-159, 2-{5-[2-(4-Fluoro-phenyl)-1-methyl-ethylcarbamoyl]-thiophen-2-yl}-5H-pyrrolo[2,3-b]pyrazine-7-carboxylic acid ((S)-1,2,2-trimethyl-propyl)-amide]
0.46 | CC(NC(=O)c1ccc(-c2cnc3[nH]cc(C(=O)N[C@@H](C)C(C)(C)C)c3n2)s1)c1ccc(F)cc1 (stereo partly drawn) [Example I-195, 2-{5-[1-(4-Fluoro-phenyl)-ethylcarbamoyl]-thiophen-2-yl}-5H-pyrrolo[2,3-b]pyrazine-7-carboxylic acid ((S)-1,2,2-trimethyl-propyl)-amide]
0.69 | CC1CCCCC1NC(=O)c1ccc(-c2cnc3[nH]cc(C(=O)N[C@@H](C)C(C)(C)C)c3n2)s1 (stereo partly drawn) [Example I-190, 2-[5-(2-Methyl-cyclohexyl-carbamoyl)-thiophen-2-yl]-5H-pyrrolo[2,3-b]pyrazine-7-carboxylic acid ((S)-1,2,2-trimethyl-propyl)-amide]
0.17 | C[C@H](NC(=O)c1c[nH]c2ncc(-c3ccc(C(=O)NCc4ccncc4)s3)nc12)C(C)(C)C [Example I-165, 2-{5-[(Pyridin-4-ylmethyl)-carbamoyl]-thiophen-2-yl}-5H-pyrrolo[2,3-b]pyrazine-7-carboxylic acid ((S)-1,2,2-trimethyl-propyl)-amide]
132 | CC(C)(C)[C@@H](CC#N)NC(=O)c1c[nH]c2ncc(C3CC3)nc12 [Example I-76, 2-Cyclopropyl-5H-pyrrolo[2,3-b]pyrazine-7-carboxylic acid ((R)-1-cyanomethyl-2,2-dimethyl-propyl)-amide]
3460 | CCNC(=O)c1c[nH]c2ncc(Oc3cccc(OC(F)(F)F)c3)nc12 [Example I-246, 2-(3-Trifluoromethoxy-phenoxy)-5H-pyrrolo[2,3-b]pyrazine-7-carboxylic acid ethylamide]
16.3 | O=C(N[C@H](C1CC1)C1(O)CCCC1)c1c[nH]c2ncc(C3CC3)nc12 [Example I-104, 2-Cyclopropyl-5H-pyrrolo[2,3-b]pyrazine-7-carboxylic acid [(R)-cyclopropyl-(1-hydroxy-cyclopentyl)-methyl]-amide]

IC50 [nM] | SMILES
18 | C[C@H](NC(=O)c1c[nH]c2ncc(C3CC3)nc12)C1(O)CCCC1 [Example I-97, 2-Cyclopropyl-5H-pyrrolo[2,3-b]pyrazine-7-carboxylic acid [(S)-1-(1-hydroxy-cyclopentyl)-ethyl]-amide]
47.2 | CC[C@@](C)(O)[C@@H](C)NC(=O)c1c[nH]c2ncc(C3CC3)nc12 [Example I-83, 2-Cyclopropyl-5H-pyrrolo[2,3-b]pyrazine-7-carboxylic acid ((1R,2R)-2-hydroxy-1,2-dimethyl-butyl)-amide]
12.2 | C=C(C)c1cnc2[nH]cc(C(=O)N[C@@H](C)C(C)(C)O)c2n1 [Example I-3, 2-Isopropenyl-5H-pyrrolo[2,3-b]pyrazine-7-carboxylic acid ((S)-2-hydroxy-1,2-dimethyl-propyl)-amide]
3850 | CCc1ccccc1Oc1cnc2[nH]cc(C(=O)NC(C)C)c2n1 [Example I-238, 2-(2-Ethyl-phenoxy)-5H-pyrrolo[2,3-b]pyrazine-7-carboxylic acid isopropylamide]
38.5 | C[C@@H](NC(=O)c1c[nH]c2ncc(C3CC3)nc12)C1(C#N)CCCC1 [Example I-100, 2-Cyclopropyl-5H-pyrrolo[2,3-b]pyrazine-7-carboxylic acid [(R)-1-(1-cyano-cyclopentyl)-ethyl]-amide]
934 | CC(CN(C)C)NC(=O)c1c[nH]c2ncc(C3CC3)nc12 (stereo not shown) [Example I-27, 2-Cyclopropyl-5H-pyrrolo[2,3-b]pyrazine-7-carboxylic acid (2-dimethylamino-1-methyl-ethyl)-amide]
2610 | CC(C)NC(=O)c1c[nH]c2ncc(Oc3cccc(OC(F)(F)F)c3)nc12 [Example I-230, 2-(3-Trifluoromethoxy-phenoxy)-5H-pyrrolo[2,3-b]pyrazine-7-carboxylic acid isopropylamide]
39.5 | CC[C@](C)(O)[C@H](C)NC(=O)c1c[nH]c2ncc(C3CC3)nc12 [Example I-31, 2-Cyclopropyl-5H-pyrrolo[2,3-b]pyrazine-7-carboxylic acid ((1S,2S)-2-hydroxy-1,2-dimethyl-butyl)-amide]
0.56 | COc1ccc(OC)c(CNC(=O)c2ccc(-c3cnc4[nH]cc(C(=O)N[C@@H](C)C(C)(C)C)c4n3)s2)c1 [Example I-204, 2-[5-(2,5-Dimethoxy-benzylcarbamoyl)-thiophen-2-yl]-5H-pyrrolo[2,3-b]pyrazine-7-carboxylic acid ((S)-1,2,2-trimethyl-propyl)-amide]
8.38 | C[C@H](NC(=O)c1c[nH]c2ncc(C3CC3)nc12)[C@@](C)(O)C(F)(F)F [Example I-53, 2-Cyclopropyl-5H-pyrrolo[2,3-b]pyrazine-7-carboxylic acid ((1S,2R)-3,3,3-trifluoro-2-hydroxy-1,2-dimethyl-propyl)-amide]
0.32 | C[C@H](NC(=O)c1c[nH]c2ncc(-c3ccc(C(=O)N4CC(C#N)C4)s3)nc12)C(C)(C)C [Example I-178, 2-[5-(3-Cyano-azetidine-1-carbonyl)-thiophen-2-yl]-5H-pyrrolo[2,3-b]pyrazine-7-carboxylic acid ((S)-1,2,2-trimethyl-propyl)-amide]
13.7 | CC(C)(C)[C@H](CC#N)NC(=O)c1c[nH]c2ncc(C3CC3)nc12 [Example I-77, 2-Cyclopropyl-5H-pyrrolo[2,3-b]pyrazine-7-carboxylic acid ((S)-1-cyanomethyl-2,2-dimethyl-propyl)-amide]
1070 | CCNC(=O)c1c[nH]c2ncc(Oc3cccc(Cl)c3)nc12 [Example I-244, 2-(3-Chloro-phenoxy)-5H-pyrrolo[2,3-b]pyrazine-7-carboxylic acid ethylamide]
222 | C[C@@H](NC(=O)c1c[nH]c2ncc(Oc3ccccc3)nc12)C1CCCCC1 [Example I-129, 2-Phenoxy-5H-pyrrolo[2,3-b]pyrazine-7-carboxylic acid ((R)-1-cyclohexyl-ethyl)-amide]
414 | O=C(NC(CO)CO)c1c[nH]c2ncc(C3CC3)nc12 [Example I-51, 2-Cyclopropyl-5H-pyrrolo[2,3-b]pyrazine-7-carboxylic acid (2-hydroxy-1-hydroxymethyl-ethyl)-amide]
0.32 | C[C@H](NC(=O)c1c[nH]c2ncc(-c3ccc(C(=O)N[C@H](C)C4CC4)s3)nc12)C(C)(C)C [Example I-162, 2-[5-((R)-1-Cyclopropyl-ethylcarbamoyl)-thiophen-2-yl]-5H-pyrrolo[2,3-b]pyrazine-7-carboxylic acid ((S)-1,2,2-trimethyl-propyl)-amide]
22.9 | CC[C@H](C)NC(=O)c1c[nH]c2ncc(Oc3ccc4c(c3)[C@H](NC(C)=O)CC4)nc12 [Example I-296, 2-((R)-3-Acetylamino-indan-5-yloxy)-5H-pyrrolo[2,3-b]pyrazine-7-carboxylic acid ((S)-sec-butyl)-amide]
